Test results as given in patent publication US9399636B2, “Substituted dipyridylamines and uses thereof” (Genentech, Inc., priority 2012, dated 2016).

Target: T1, DLK (Homo sapiens, UniProt Q12852)
T1 construct: N-terminally GST-tagged DLK (catalytic domain amino acid 1-520) (Carna Bioscience); GST (N); purchased Carna Bioscience
T1 sequence (Q12852 1-520): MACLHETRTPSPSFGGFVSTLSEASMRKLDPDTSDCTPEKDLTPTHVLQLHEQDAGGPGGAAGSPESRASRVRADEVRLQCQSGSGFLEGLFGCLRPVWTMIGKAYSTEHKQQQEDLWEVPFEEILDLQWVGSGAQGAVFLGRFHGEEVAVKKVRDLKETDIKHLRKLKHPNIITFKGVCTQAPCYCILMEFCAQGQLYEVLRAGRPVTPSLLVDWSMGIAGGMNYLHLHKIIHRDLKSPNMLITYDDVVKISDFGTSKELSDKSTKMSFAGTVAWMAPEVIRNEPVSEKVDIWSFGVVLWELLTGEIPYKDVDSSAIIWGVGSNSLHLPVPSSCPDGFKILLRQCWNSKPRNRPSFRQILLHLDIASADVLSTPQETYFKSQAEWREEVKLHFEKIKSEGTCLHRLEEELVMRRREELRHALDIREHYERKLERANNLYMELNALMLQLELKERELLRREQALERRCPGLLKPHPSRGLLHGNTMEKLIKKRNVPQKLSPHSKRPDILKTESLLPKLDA
Test: DLK TR-FRET assay
Assay type: biochemical
Settings: 5 nM GST-tagged DLK (catalytic domain amino acid 1-520), 40 nM HIS-tagged MKK4 K131M substrate, 30 μM ATP, 60 minutes
Experimental: DLK TR-FRET assay: DLK kinase reactions (20 μL) containing 5 nM N-terminally GST-tagged DLK (catalytic domain amino acid 1-520) (Carna Bioscience), 40 nM N-terminally HIS-tagged MKK4 K131M substrate, and 30 μM ATP in kinase reaction buffer (50 mM HEPES, pH 7.5, 0.01% Triton X-100, 0.01% Bovine γ-Globulins, 2 mM DTT, 10 mM MgCl2 and 1 mM EGTA), and testing compound 1:3 serial diluted starting at 20 uM were incubated at ambient temperature for 60 minutes in 384 well OptiPlate (Perkin Elmer). To quench kinase reactions and detect phosphorylated MKK4, 15 μL of TR-FRET antibody mixture containing 2 nM anti-phosphorylated MKK4 labeled with Europium cryptate (Cisbio) and 23 nM anti-HIS labeled with D2 (Cisbio) in detection buffer (25 mM Tris pH 7.5, 100 mM NaCl, 100 mM EDTA, 0.01% Tween-20, and 200 mM KF) was added to the reaction mixture. The detection mixture was incubated for 3 hours at ambient temperature and the TR-FRET was detected with an EnVision multilabel plate reader (Perkin-Elmer) using the LANCE/DELFIA Dual Enh label from Perkin-Elmer (excitation filter: UV2 (TRF) 320 and emission filters: APC 665 and Europium 615).

| SMILES | Ki [nM] |
| --- | --- |
| N#Cc1ccnc(Nc2cc(C3CCN(C4COC4)CC3)cc(N3CC4(CCC4(F)F)C3)n2)c1 [Example 94, 2-[6-(5,5-Difluoro-2-aza-spiro[3.3]hept-2-yl)-1′-oxetan-3-yl-1′,2′,3′,4′,5′,6′-hexahydro-[4,4′]bipyridinyl-2-ylamino]-isonicotinonitrile] | 4.1 |
| N#CC1(c2cc(Nc3cc(C(F)(F)F)ccn3)nc(N3CC(F)C3)c2)CCNCC1 [Example 23, 6′-(3-Fluoro-azetidin-1-yl)-2′-(4-trifluoromethyl-pyridin-2-ylamino)-2,3,5,6-tetrahydro-1H-[4,4′]bipyridinyl-4-carbonitrile] | 0.32 |
| N#Cc1ccnc(Nc2cc(C3(C#N)CCOCC3)cc(N3CC(F)C3)n2)c1 [Example 46, 2-[4-(4-Cyano-tetrahydro-pyran-4-yl)-6-(3-fluoro-azetidin-1-yl)-pyridin-2-ylamino]-isonicotinonitrile] | 13 |
| N#Cc1ccnc(Nc2cc(C3CCN(C4COC4)CC3)cc(N3CCC4CC43)n2)c1 (centres unmarked) [Example 99, 2-[6-(2-Aza-bicyclo[3.1.0]hex-2-yl)-1′-oxetan-3-yl-1′,2′,3′,4′,5′,6′-hexahydro-[4,4′]bipyridinyl-2-ylamino]-isonicotinonitrile] | 0.9 |
| Cc1cc(C2CCOCC2)cc(Nc2cc(C#N)ccn2)n1 [Example 80, 2-[6-Methyl-4-(tetrahydro-pyran-4-yl)-pyridin-2-ylamino]-isonicotinonitrile] | 58 |
| CC(=O)N1CCC(c2cc(Nc3cc(C#N)ccn3)nc(OC(C)C)c2)CC1 [Example 22, 2-(1′-Acetyl-6-isopropoxy-1′,2′,3′,4′,5′,6′-hexahydro-[4,4′]bipyridinyl-2-ylamino)-isonicotinonitrile] | 2.2 |
| O=C1CCCN1c1cc(C2CCN(C3COC3)CC2)cc(Nc2cc(C(F)F)ccn2)n1 [Example 42, 1-[6-(4-Difluoromethyl-pyridin-2-ylamino)-1′-oxetan-3-yl-1′,2′,3′,4′,5′,6′-hexahydro-[4,4′]bipyridinyl-2-yl]-pyrrolidin-2-one] | 6.4 |
| CN1CCC(C#N)(c2cc(Nc3cc(C#N)ccn3)nc(N3CC4CC4C3)c2)CC1 (centres unmarked) [Example 36, 6′-(3-Aza-bicyclo[3.1.0]hex-3-yl)-2′-(4-cyano-pyridin-2-ylamino)-1-methyl-2,3,5,6-tetrahydro-1H-[4,4′]bipyridinyl-4-carbonitrile] | 0.17 |
| N#Cc1ccnc(Nc2cc(C3CCN(C4COC4)CC3)cc(C3CC3)n2)c1 [Example 28, 2-(6-Cyclopropyl-1′-oxetan-3-yl-1′,2′,3′,4′,5′,6′-hexahydro-[4,4′]bipyridinyl-2-ylamino)-isonicotinonitrile] | 1.4 |
| N#CC1(c2cc(Nc3cc(C(F)F)ccn3)nc(N3CC(F)C3)c2)CCOCC1 [Example 55, 4-[2-(4-Difluoromethyl-pyridin-2-ylamino)-6-(3-fluoro-azetidin-1-yl)-pyridin-4-yl]-tetrahydro-pyran-4-carbonitrile] | 8.9 |
| N#Cc1ccnc(Nc2cc(C3CCN(C4COC4)CC3)cc(N3CC4(COC4)C3)n2)c1 [Example 98, 2-[6-(2-Oxa-6-aza-spiro[3.3]hept-6-yl)-1′-oxetan-3-yl-1′,2′,3′,4′,5′,6′-hexahydro-[4,4′]bipyridinyl-2-ylamino]-isonicotinonitrile] | 42.2 |
| N#Cc1ccnc(Nc2cc(C3CN(CC(F)(F)F)C3)cc(Cl)n2)c1 [Example 32, 2-{6-Chloro-4-[1-(2,2,2-trifluoro-ethyl)-azetidin-3-yl]-pyridin-2-ylamino}-isonicotinonitrile] | 220 |
| N#Cc1ccnc(Nc2cc(C3CCN(C4COC4)CC3)cc(N3CC4CC(F)(F)C4C3)n2)c1 (centres unmarked) [Example 97, 2-[6-(6,6-Difluoro-3-aza-bicyclo[3.2.0]hept-3-yl)-1′-oxetan-3-yl-1′,2′,3′,4′,5′,6′-hexahydro-[4,4′]bipyridinyl-2-ylamino]-isonicotinonitrile] | 0.6 |
| CC(C)(C)OC(=O)N1CC(c2cc(Cl)nc(Nc3cc(C(F)F)ccn3)c2)C1 [Example 45, 3-[2-Chloro-6-(4-difluoromethyl-pyridin-2-ylamino)-pyridin-4-yl]-azetidine-1-carboxylic acid tert-butyl ester] | 48 |
| CC(C)(C)OC(=O)N1CC(c2cc(Cl)nc(Nc3cc(C#N)ccn3)c2)C1 [Example 41, 3-[2-Chloro-6-(4-cyano-pyridin-2-ylamino)-pyridin-4-yl]-azetidine-1-carboxylic acid tert-butyl ester] | 56 |
| COC1CN(c2cc(C3CCOCC3)cc(Nc3cc(C#N)ccn3)n2)C1 [Example 87, 2-[6-(3-Methoxy-azetidin-1-yl)-4-(tetrahydro-pyran-4-yl)-pyridin-2-ylamino]-isonicotinonitrile] | 51 |

More lines, now with the values ahead:

| Ki [nM] | SMILES |
| --- | --- |
| 30 | CC(=O)N1CCC(c2cc(Nc3cc(C)ccn3)nc(-c3cnn(C)c3)c2)CC1 [Example 134, 1-[2′-(1-Methyl-1H-pyrazol-4-yl)-6′-(4-methyl-pyridin-2-ylamino)-3,4,5,6-tetrahydro-2H-[4,4′]bipyridinyl-1-yl]-ethanone] |
| 38 | COC1CCN(c2cc(C3CCOCC3)cc(Nc3cc(C#N)ccn3)n2)C1 (centres unmarked) [Example 101, 2-[6-(3-Methoxy-pyrrolidin-1-yl)-4-(tetrahydro-pyran-4-yl)-pyridin-2-ylamino]-isonicotinonitrile] |
| 0.2 | C[C@@H]1CCCN1c1cc(C2CCN(C3COC3)CC2)cc(Nc2cc(C#N)ccn2)n1 [Example 121, 2-[6-((R)-2-Methyl-pyrrolidin-1-yl)-1′-oxetan-3-yl-1′,2′,3′,4′,5′,6′-hexahydro-[4,4′]bipyridinyl-2-ylamino]-isonicotinonitrile] |
| 120 | Cc1cc(C2CCN(C(=O)C(F)(F)F)CC2)cc(Nc2cc(C#N)ccn2)n1 [Example 107, 2-[6-Methyl-1′-(2,2,2-trifluoro-acetyl)-1′,2′,3′,4′,5′,6′-hexahydro-[4,4′]bipyridinyl-2-ylamino]-isonicotinonitrile] |
| 11 | N#Cc1ccnc(Nc2cc(C3CCOCC3)cc(N3CC4CC(F)(F)C4C3)n2)c1 (centres unmarked) [Example 100, 2-[6-(6,6-Difluoro-3-aza-bicyclo[3.2.0]hept-3-yl)-4-(tetrahydro-pyran-4-yl)-pyridin-2-ylamino]-isonicotinonitrile] |
| 1600 | Cc1cc(C2CCOCC2)cc(Nc2cc(CN)ccn2)n1 [Example 113, (4-Aminomethyl-pyridin-2-yl)-[6-methyl-4-(tetrahydro-pyran-4-yl)-pyridin-2-yl]-amine] |
| 510 | CC(=O)N1CCC(c2ccnc(Nc3cc(C#N)ccn3)c2)CC1 [Example 129, 2-(1′-Acetyl-1′,2′,3′,4′,5′,6′-hexahydro-[4,4′]bipyridinyl-2-ylamino)-isonicotinonitrile] |
| 450 | CS(=O)(=O)N1CCC(c2ccnc(Nc3cc(C#N)ccn3)c2)CC1 [Example 128, 2-(1′-Methanesulfonyl-1′,2′,3′,4′,5′,6′-hexahydro-[4,4′]bipyridinyl-2-ylamino)-isonicotinonitrile] |
| 4 | Cn1cc(-c2cc(C3CCOCC3)cc(Nc3cc(OC(F)F)ccn3)n2)cn1 [Example 118, (4-Difluoromethoxy-pyridin-2-yl)-[6-(1-methyl-1H-pyrazol-4-yl)-4-(tetrahydro-pyran-4-yl)-pyridin-2-yl]-amine] |
| 710 | N#Cc1ccnc(Nc2cc(C3CCN(C4COC4)CC3)ccn2)c1 [Example 124, 2-(1′-Oxetan-3-yl-1′,2′,3′,4′,5′,6′-hexahydro-[4,4′]bipyridinyl-2-ylamino)-isonicotinonitrile] |
| 21 | Cc1ccnc(Nc2cc(C3CCN(C4COC4)CC3)cc(N3CCC[C@H]3C)n2)c1 [Example 135, (4-Methyl-pyridin-2-yl)-[6-((R)-2-methyl-pyrrolidin-1-yl)-1′-oxetan-3-yl-1′,2′,3′,4′,5′,6′-hexahydro-[4,4′]bipyridinyl-2-yl]-amine] |
| 2.12 | CC1CCCN1c1cc(C2CCN(S(C)(=O)=O)C2)cc(Nc2cc(C(F)(F)F)ccn2)n1 (centres unmarked) [Example 132, [4-(1-Methanesulfonyl-pyrrolidin-3-yl)-6-(2-methyl-pyrrolidin-1-yl)-pyridin-2-yl]-(4-trifluoromethyl-pyridin-2-yl)-amine] |
| 2.9 | CC(=O)N1CC(c2cc(Nc3cc(C(F)(F)F)ccn3)nc(N3CCC(F)(F)C3)c2)C1 [Example 127, 1-{3-[2-(3,3-Difluoro-pyrrolidin-1-yl)-6-(4-trifluoromethyl-pyridin-2-ylamino)-pyridin-4-yl]-azetidin-1-yl}-ethanone] |
